Measurements: patent publication US20230303581A1, “ORALLY BIOAVAILABLE, BRAIN-PENETRANT COMPOUND WITH SELECTIVITY FOR THE CANNABINOID TYPE 2 RECEPTOR WITH POTENTIAL USE TOWARDS VISCERAL PAIN MANAGEMENT AND NEURODEGENERATIVE DISORDERS” (University of Mississippi, priority 2022, published 2023)

Assays:
human CB1 receptors = human CB1 receptors (Homo sapiens (Human), UniProt P21554); assay: Cannabinoid receptor binding (displacement) assay, CB1; details: 10 μM compound
Description: (§1) The affinities of the compounds for CB1 and CB2 receptors were examined using displacement assays, as previously described. Briefly, cell membranes from CHO cells expressing human CB1 or human CB2 receptors were isolated using differential centrifugation. Test compounds reconstituted in DMSO and were incubated with the isolated membrane in binding buffer (50 mM Tris-HCl, 1 mM EDTA, 3 mM MgCl2, 5 mg/mL BSA, pH 7.4) along with 2.5 nM [^3H]CP-55,940. Total binding was assessed in the presence of equal concentration of DMSO, while non-specific binding was determined in the presence of 10 μM CP-55,940, and background binding was determined in wells lacking membrane. Following incubation at 30° C. for 60 min, the binding reactions were terminated by vacuum filtration through Whatman GF/C filters. The filters were then washed twice with ice-cold buffer (50 mM Tris-HCl, 1 mg/mL BSA). Liquid scintillation cocktail was added to each well and the total tritiated counts per minute were analyzed using a TopCount scintillation counter. Background counts were subtracted from all wells and the percent displacement from total binding was calculated.
(§2) The compounds were initially screened at 10 μM concentrations. If they produced at least ±30% displacement of the radioligand, then full competition curves were constructed. Ki values were calculated using GraphPad Prism (San Diego, CA, USA) and Kd values determined using a 1 site fit. All assays were run in technical and biological replicates so that the n=5-6. PK Evaluation in CD-1 Mice
(§3) The CB1/CB2 receptor binding activities of analogs 4a-4q were assessed via radioactivity-based competitive binding assays using [^3H]CP55,940, an extensively studied radioligand that is frequently used for cannabinoid assays. […] In preliminary screening, all 17 synthetic PBD compounds (4a-4q) were subjected to in vitro CB1 and CB2 binding assays at a single concentration of 10 μM. […] Therefore, the most promising ligands (4k and 4q) were selected for assessment in full competition curves against CB1 and CB2.

human CB2 receptors = human CB2 receptors (Homo sapiens (Human), UniProt P34972); assay: Cannabinoid receptor binding (displacement) assay, CB2; details: 10 μM compound
Sequence of human CB2 receptors (P34972 whole entry): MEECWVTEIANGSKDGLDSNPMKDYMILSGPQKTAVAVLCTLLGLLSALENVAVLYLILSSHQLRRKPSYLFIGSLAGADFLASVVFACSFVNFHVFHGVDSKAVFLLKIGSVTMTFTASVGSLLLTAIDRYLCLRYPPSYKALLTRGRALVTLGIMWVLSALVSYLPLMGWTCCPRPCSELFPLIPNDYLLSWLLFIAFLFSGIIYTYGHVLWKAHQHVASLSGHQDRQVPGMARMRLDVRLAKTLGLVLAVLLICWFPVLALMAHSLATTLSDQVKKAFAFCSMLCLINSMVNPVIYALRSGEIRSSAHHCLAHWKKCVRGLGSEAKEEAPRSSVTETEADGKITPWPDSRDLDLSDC
Description: as §1, §2, §3

mice [1] = assay: Conditioned place preference test; assay type: in vivo; details: FIG. 4
Excerpt: Conditioned place preference testing is used to assess a compound's rewarding effects in order to gauge potential abuse liability. Mice are “conditioned” to associate distinctly lighted/colored/textured chambers with a rewarding drug (e.g., opioid) or no drug. If the mice sense a rewarding effect of the drug, they will prefer to occupy the chamber associated with that drug. FIG. 4 presents the results of a conditioned place preference test for 3 groups of mice (i.e., vehicle, oxycodone treated, and compound 4k treated).

mice [2] = assay: Acetic acid-induced writhing test; assay type: in vivo; details: oxycodone 3 mg/kg, compound 4k 5 mg/kg, versus vehicle
Excerpt: Acetic acid-induced writhing is widely used for assessing analgesic effects against inflammatory pain of peripheral origin.

Sequence of human CB1 receptors (P21554 whole entry): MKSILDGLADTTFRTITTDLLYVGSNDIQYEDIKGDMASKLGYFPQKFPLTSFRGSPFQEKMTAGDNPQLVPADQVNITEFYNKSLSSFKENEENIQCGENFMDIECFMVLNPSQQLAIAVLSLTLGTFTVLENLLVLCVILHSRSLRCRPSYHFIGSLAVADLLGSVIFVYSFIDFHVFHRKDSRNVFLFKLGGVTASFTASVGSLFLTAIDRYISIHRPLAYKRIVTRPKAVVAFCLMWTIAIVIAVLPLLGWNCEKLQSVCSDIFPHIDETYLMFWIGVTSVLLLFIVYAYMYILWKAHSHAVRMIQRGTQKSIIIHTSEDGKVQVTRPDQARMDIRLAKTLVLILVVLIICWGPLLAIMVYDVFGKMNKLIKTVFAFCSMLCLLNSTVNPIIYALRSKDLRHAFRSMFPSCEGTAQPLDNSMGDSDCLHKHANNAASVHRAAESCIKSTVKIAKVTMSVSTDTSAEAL

| Compound | Displacement of [3H]CP-55,940 from CB1 (human CB1 receptors) | Displacement of [3H]CP-55,940 from CB2 (human CB2 receptors) | place preference (rewarding effect, abuse liability) (mice [1]) | writhing over 30 minutes (mice [2]) |
| --- | --- | --- | --- | --- |
| (S,E)-11-[(Benzo[b]thiophen-3-ylmethylene)hydrazono]-7-bromo-pyrrolo[2,1-c][1,4]Benzodiazepine [Compound 4j] | 66.81% | 65.24% | – | – |
| O=C1c2ccccc2N/C(=N/N=C/c2sc3ccccc3c2Cl)[C@@H]2CCCN12 [Compound 4m] | 5.22% | 50.05% | – | – |
| (S,E)-11-[(Benzo[d]thiazol-2-ylmethylene)hydrazono]-pyrrolo[2,1-c][1,4] Benzodiazepine [Compound 4n] | 44.14% | 43.34% | – | – |
| (S,E)-11-[(Thiazol-5-ylmethylene)hydrazono]-pyrrolo[2,1-c][1,4] Benzodiazepine [Compound 4c] | 0.25% | 3.06% | – | – |
| Cc1ncc(/C=N/N=C2/Nc3ccccc3C(=O)N3CCC[C@@H]23)s1 [Compound 4d] | −27.99% | −33.65% | – | – |
| COc1ccc2c3c1O[C@H]1C(=O)CC[C@@]4(O)[C@@H](C2)N(C)CC[C@]314 [oxycodone, reference compound] | – | – | clear place preference | attenuate writhing |
| O=C1c2ccccc2N/C(=N/N=C/c2sc(Cl)nc2Cl)[C@@H]2CCCN12 [Compound 4g] | 24.19% | 29.27% | – | – |
| Cc1c(/C=N/N=C2/Nc3ccccc3C(=O)N3CCC[C@@H]23)sc2ccccc12 [Compound 4l] | 77.17% | 51.73% | – | – |
| Cn1ccnc1/C=N/N=C1/Nc2ccccc2C(=O)N2CCC[C@@H]12 [Compound 4b] | −13.99% | −14.48% | – | – |
